Results as given in patent US20050079151A1, “Therapeutic agents for apoptosis-related diseases” (priority 1998, published 2005).
Where two headings read alike, the source gives them in different places.

How the values were obtained:
hippocampal neurocytes = details: cited from earlier work
Bcl-2 = assay: Effect for enhancing Bcl-2 expression (Western blotting); type: cell-based; details: G401 cells, MK 100 ng/ml, no cisplatin
Description: The effect of MK on the expression of the Bcl-2 gene was examined. Six groups were prepared; the untreated group, the cisplatin (100 μM) treated group, the human MK (100 ng/ml) treated group, the human MK (100 ng/ml)+cisplatin (100 μM) group, the mouse MK (100 ng/ml) treated group, and the mouse MK (100 ng/ml)+cisplatin (100 μM) treated group.
G401 cells were seeded on a 3.5 cm-dish and cultured in 10% FBS/DMEM until the cells became almost confluent. The cells were washed twice and cultured in 0.1% FBS/DMEM overnight. Then, human MK or mouse MK (JP-A No. Hei 8-196293) was added to the MK treatment groups at 100 ng/ml and cultured for six hours. Cisplatin was added to the cisplatin treatment group to 100 μM, and cultured for 2 hours. After culturing, the cells were washed with 0.1% FBS/DMEM three times, cultured in 0.1% FBS/DMEM for 10 hours, and washed with PBS three times.
Two hundred microliters of buffer [1% Triton X-100, 150 mM NaCl, 10 mM Tris (pH 7.4), 1.0 mM EGTA, 0.5% NP-40, 1 mM PMSF, 0.1 μg/ml apiotinin, 40 nM Iewpeptin] were added to each dish and kept on ice for 20 min. The cells in each dish were detached by a scraper, and mixed 8 to 10 times using a syringe with a 26-gauge needle. The cells of each dish were centrifuged in a centrifuge tube at 4° C. at 12000 rpm for 30 min. The precipitated proteins were quantified (BCA Kit; PIERCE). The precipitate prepared from each dish (50 μg) was analyzed by Western blotting using anti-Bcl-2 monoclonal antibody (500×) (Dako; Denmark) and anti-mouse HRP antibody (Jackson Immuno Research) (FIG. 6). The band in each lane is numerically shown (FIG. 7).

Molecule	rescuing hippocampal neurocytes from delayed neuronal death (hippocampal neurocytes; 28 days after the injury (Ishimura et al. 1998))	dosage required for protection from delayed neuronal death (hippocampal neurocytes; intraventricular injection (Shigeno et al. 1991)) [µg]	rescuing hippocampal neurocytes from delayed neuronal death (hippocampal neurocytes; seven days after development of the ischemic injury (Ishimura et al. 1998))	expression of Bcl-2 (Bcl-2)
NGF: neurotrophic factor reported in the literature to ameliorate delayed neuronal death	not effective	10	effective	–
mouse MK: mouse MK (JP-A No. Hei 8-196293) (protein, UniProt P12025 23-140, looked up) Midkine: KKKEKVKKGSECSEWTWGPCTPSSKDCGMGFREGTCGAQTQRVHCKVPCNWKKEFGADCKYKFESWGACDGSTGTKARQGTLKKARYNAQCQETIRVTKPCTSKTKSKTKAKKGKGKD	–	–	–	enhanced the expression of Bcl-2
